Experimental data: patent publication US7271239B2, “D-isomers of antimicrobial peptide” (The Research Foundation of State University of New York, priority 2004, dated 2007)
Converted amounts (≈) assume the structure as drawn. Where two headings read alike, the source gives them in different places. Where a SMILES comes first, the peptide text is derived from it.

Key:
[1] = tested on: S. mutans; experiment: microbe, parasite or virus in culture; details: median of four strains
Description: (§1) The bacteria used in this study included Streptococcus mutans ATCC10449, Streptococcus mutans AU 159, Streptococcus mutans GS-5, Streptococcus mutans GS-5 mutant (^gtf BCD), Streptococcus gordonii Challis, Porphyromonas gingivalis W50, Porphyromonas gingivalis 381, A. actinomycetemcomitans NCTC 9710, Pseudomonas aeruginosa ATCC 17648, and Escherichia coli HB101. One quarter strength (25%) of brain heart infusion broth (BHI, DIFCO Laboratories, Detroit, Mich.) was used for the growth of S. mutans, S. gordonii, A. actinomycetemcomitans, Ps. aeruginosa, and E. coli. For growth of P. gingivalis, tryptic soy broth-yeast extract medium (TSBY, DIFCO Laboratories, Detroit, Mich.) supplemented with cysteine hydrochloride (0.05%), menadione (0.02 μg/ml), hemin (5 μg/ml), and potassium nitrate (0.02%) was used. All bacteria were cultured at 37° C.; Ps. aeruginosa and E. coli were grown aerobically, and the other bacteria, anaerobically. To prepare bacterial cell suspension for antibacterial activity assays, each overnight culture was harvested by centrifuge (3783 g, 10 min), washed once with 10 mM sodium phosphate-buffered saline (PBS, pH 7.2), resuspended in PBS and adjusted to a concentration of 1×10^6 cells/mL.
(§2) MICs of the peptides were determined by broth microdilution method as previously described (5). Briefly, two-fold serial dilutions of each peptide were prepared with 25% BHI medium at a volume of 200 μl per well in 96-well flat-bottom microtiter plates (Costar, Cambridge, Mass.). The final concentration of the peptides ranged from 0.78 to 100 μM, and chlorhexidine (CHX), used as a positive control, from 20 to 0.16 μM (10 to 0.078 μg/mL). The microtiter plate was inoculated with bacterial cell suspension with final concentration of 5×10^6 CFU/mL for P. gingivalis and 5×10^5 CFU/mL for the other bacterial species. After incubation at 37° C. for 48 h, the absorbance was measured at 595 nm by using a microplate reader (Model 3550, Bio-Rad, Japan) to assess the cell growth. […] The MIC value represents the median of at least three independent experiments. The minimal bactericidal concentration (MBC) was determined as follows. Aliquot (100 μl) of cell suspension was taken from two wells above MIC, centrifuged, and washed three times with PBS. Then each cell suspension was plated on TSBY agar plate, and bacterial cells were enumerated after incubation at 37° C. for 48 h. The MBC was defined as the lowest concentration of the peptide at which more than 99.9% of cells were killed compared to non-treated control.

[2] = tested on: S. gordonii Challis; experiment: microbe, parasite or virus in culture; format: cell-based, Streptococcus gordonii
Description: as §1, §2

[3] = tested on: A. actinomycetemcomitans NCTC 9710; experiment: microbe, parasite or virus in culture; format: cell-based
Description: as §1, §2

[4] = tested on: P. gingivalis; experiment: microbe, parasite or virus in culture; format: cell-based, Porphyromonas gingivalis
Description: as §1, §2

[5] = tested on: Ps. aeruginosa ATCC 17648; experiment: microbe, parasite or virus in culture; format: cell-based, Pseudomonas aeruginosa; details: ATCC 17648
Description: as §1, §2

[6] = tested on: E. coli HB101; experiment: microbe, parasite or virus in culture; format: cell-based, Escherichia coli
Description: as §1, §2

[7] = tested on: S. mutans GS-5; experiment: Time-kill assay; format: cell-based, Streptococcus mutans; details: after 4 h incubation, each agent at its MIC
Experimental: FIG. 10. Time-Killing curves for S. mutans. […] Control (▪), MUC7 12-mer-L (Δ), MUC7 12-mer-D (□), MUC7 20-mer (▴), Hsn5 12-mer (×), magainin II (●), chlorhexidine (◯).
For the peptides MUC7 12-mer-L, MUC7 12-mer-D, and MUC7 20-mer, time-kill kinetic studies against S. mutans were performed by the broth macrodilution method. S. mutans GS-5 (1×10^6 CFU/ml) and antibacterial agens (find concentrations of 12.5 μM for each peptide, and 2 μM for CHX; their MICs) were incubated in 25% BHI at 37° C. At the time of 0, 1, 2, 4, 8, and 24 h, samples were taken and viable counts determined as follows: The samples were serially diluted (10^−1 to 10^−4) in sterile 10 mM PBS (pH 7.2) and 50 μl aliquots were plated onto TSBY agar. The plates were incubated anaerobically at 37° C. for 48 h, followed by enumerating the CFU. Killing curves were constructed by plotting the log10 CFU per milliliter versus time over 24 h. All assays were done in duplicate on at least two occasions.

[8] = tested on: S. mutans GS-5 biofilm; format: cell-based, Streptococcus mutans
Experimental: FIG. 11. Effect of peptides on the biofilm formation of S. mutans. The bacterial cells (5×10^5 cfu ml^−1) were inoculated in 96-well microtiter plate containing 25% BHIS medium with different concentration of each agent. Culture without agent was used as no treatment control. After incubation at 37° C. for 24 h, absorbance at 595 nm was recorded to assess the cell growth. Biofilm assay was performed by discarding the supernatants, washing with PBS, fixing with methanol, and staining with CV. The absorbance at 570 nm was recorded to assess the amount of biofilm. The activity was expressed as % of control. Data represents mean and SD of two independent tests with duplicates for each. Empty bar: growth, solid bar: biofilm.
The effect of the peptides on S. mutans in biofilm formation was examined by the microdilution method. This method is similar to the MIC assay for planktonic cells. Two-fold serial dilutions of each peptide were prepared in wells of polystyrene microtiter plates (Microtest tissue culture plate, 96 well, Falcon, Becton Dickinson and Company, N.J.) containing 25% BHI medium supplemented with 1% sucrose (BHIS) at a volume of 200 μl per well. The final concentration of the peptide ranged from 0.78 to 100 μM for each peptide. Chlorhexidine (CHX, 0.078 to 10 μg/mL) was used as the positive control, the medium without drug as the non-treated control, and the medium alone as the blank control. The cells suspension of S. mutans GS-5 was prepared as describe in MIC assay and 20 μl aliquot (final concentration of cells 5×10^5 CFU/mL) was inoculated to the wells of polystyrene microtiter plates. After incubation at 37° C. for 20 h, the culture supernatants from each well were decanted and planktonic cells were removed by washing with PBS, pH 7.2. The biofilm was fixed with methanol for 15 min and then air dried at room temperature. The biofilm was then stained with 0.1% (wt/vol) crystal violet (Sigma) for 5 min. and rinsed thoroughly with water until the control wells appeared colorless. Biofilm formation was quantified by the addition of 200 μl of 95% ethanol to each crystal violet-stained well. The plate was rocked at room temperature for 30 min and the absorbance at 595 nm (A595 nm) was determined with a microplate reader (BioRad Model 3550 Microplate Reader). Percentage of inhibition was calculated with the equation: (1−A595 nm of the test/A595nm of non-treated control)×100.

[9] = tested on: S. mutans GS-5 1-day biofilm; format: cell-based, Streptococcus mutans
Experimental: FIG. 12. Effect of peptides on 1-day biofilm of S. mutans. One-day mature biofilm was prepared as described above. BHI medium supplemented with 1% sucrose (BHIS) with peptides, prepared in another microtiter plate, was then transferred to the biofilm plate. After further incubation at 37° C. for 24 h, the biofilm was fixed, stained, and quantified as describe above. Data represents mean and SD of two independent tests performed in duplicated. Empty bar: growth, solid bar: biofilm.
To examine the effects of the peptides on 1-day mature biofilm, S. mutans GS-5 was inoculated into the wells of another polystyrene microtiter plate containing BHIS at a volume of 200 μl per well. After incubation at 37° C. for 24 h, the culture supernatants from each well were decanted and planktonic cells were removed by washing with PBS. BHIS containing 0.78 to 100 μM peptides, prepared in another microtiter plate, was then transferred to the 1-day biofilm plate, and further incubated at 37° C. for one day. The biofilm was fixed, stained, and quantified as describe above.

CC[C@H](C)[C@H](NC(=O)[C@H](Cc1ccccc1)NC(=O)[C@@H]1CCCN1C(=O)[C@H](CCCCN)NC(=O)[C@H](CCC(N)=O)NC(=O)[C@H](Cc1c[nH]cn1)NC(=O)[C@H](C)NC(=O)[C@@H](N)CC(C)C)C(=O)N[C@@H](CCCNC(=N)N)C(=O)N[C@@H](CCCCN)C(=O)N[C@@H](CO)C(=O)N[C@@H](Cc1ccc(O)cc1)C(=O)N[C@@H](CCCCN)C(=O)N[C@@H](CS)C(=O)N[C@@H](CC(C)C)C(=O)N[C@@H](Cc1c[nH]cn1)C(=O)N[C@@H](CCCCN)C(=O)N[C@@H](CCCNC(=N)N)C(=O)N[C@@H](CS)C(=O)N[C@@H](CCCNC(=N)N)C(=O)O [MUC7 20-mer] (H-LAHQKPFIRKSYKCLHKRCR-OH; N-terminus and C-terminus assumed)
MBC (μM) [1]: 12.5 µM (≈ 31.4 µg/mL)
MBC (μg/ml) [1]: 31.4 µg/mL (≈ 12.5 µM)
MBC (μM) [2]: 25.0 µM (≈ 62.8 µg/mL)
MBC (μg/ml) [2]: 62.8 µg/mL (≈ 25 µM)
MIC (μM) [2]: 12.5 µM (≈ 31.4 µg/mL)
MIC (μg/ml) [2]: 31.4 µg/mL (≈ 12.5 µM)
MBC (μg/ml) [3]: 251.3 µg/mL (≈ 100 µM)
MIC (μg/ml) [3]: 251.3 µg/mL (≈ 100 µM)
MBC (μM) ([3]; NCTC 9710): 100.0 µM (≈ 251 µg/mL)
MIC (μM) ([3]; NCTC 9710): 100.0 µM (≈ 251 µg/mL)
MIC (μM) [4]: >100 µM
MIC (μg/ml) [4]: >251 µg/mL
MBC (μM) [5]: >100 µM
MBC (μg/ml) [5]: >251 µg/mL
MIC (μM) [5]: >100 µM
MIC (μg/ml) [5]: >251 µg/mL
MBC (μM) [6]: 100.0 µM (≈ 251 µg/mL)
MIC (μM) [6]: 100.0 µM (≈ 251 µg/mL)
reduction of the viable counts of S. mutans [7]: 2 log10
MBIC50 [8]: 15.5 µg/mL
MBIC50 ([8]; GS-5 biofilm, 24 h): 6.25 µM
MBEC50 (μg/ml) [9]: 62 µg/mL
MBEC50 (μM) ([9]; GS-5 1-day biofilm, 24 h): 25 µM
eradication of 1-day developed biofilm ([9]; at or more than MBEC50): reduction of biofilm was observed
